The values below come from patent US20240116921A1, “LACTAM (HETERO)[…] DERIVATIVES AS INHIBITORS OF ERBB2” (EnLiven Therapeutics, Inc., priority 2020, published 2024).

SMILES strings stand for the structures.

The target of test [1] is T1, phosphorylated ERBB2 (pERBB2) (Homo sapiens, UniProt P04626).
T1 construct: endogenous in cells; host or cells: BT-474
Put plainly: Detection of phosphorylated ERBB2 (pERBB2) by ELISA in BT-474 cells. Format: cell-based. The note with it: four hours incubation. As for the experimental part: BT-474 cells were seeded into a 96-well at 2.0*10^4 cells/100 μl/well.
Compounds were dissolved and serially diluted in DMSO. The compounds were then were added, mixed, and incubated for four hours at 37° C., 5% CO2. Compounds were added using four-fold dilutions at final concentrations ranging from 10 μM to 0.01 nM.
Following the four hour incubation with compounds, cell lysates were prepared.
Plates were centrifuged for 5 min at 3000 RPM, and supernatant was removed from each well. Cells were washed 3 times by resuspension in 150 μl PBS, followed by centrifugation and removal of the supernatant, as above. […] Cells were incubated with lysis buffer for 1 hour at 4° C., and then stored at −80° C.
Enzyme-linked immunosorbent assays (ELISA) were performed to measure phosphorylated ERBB2 levels. […] The next day, plates were washed with PBS+0.05% Tween20 (PBST). 150 μl of 5% BSA blocking solution was added for 1 hour at room temperature, with shaking. Plates were washed with PBST. Cell lysates were thawed and 100 μl of lysate was added to the ELISA plate. The plates were incubated for 2 hours at room temperature, with shaking. […] Plates were incubated for 1 hour at room temperature, with shaking. Plates were then washed with PBST, and 100 μl TMB substrate solution (R&D Systems, cat #DY999) was added. Plate were incubated in the dark for 20 minutes at room temperature. 50 μl of Stop solution (R&D Systems, cat #DY994) (50 μl) was added to each well and mixed.
Optical density at 450 nm was read on an EnSpire plate reader (Perkin Elmer). The remaining kinase activity by calculated using the following formula: % Relative activity=100×(A450sample−A450LC)/(A450HC−A450LC). The low and high control values (“LC” and “HC”) were generated from lysate from wells without cells or with cells treated with 0.1% DMSO, respectively.
On the technique in general: ELISA stands for enzyme-linked immunosorbent assay.

For test [2], the target named is T2, phosphorylated EGFR (pEGFR) (Homo sapiens, UniProt P00533).
T2 construct: performed to measure phosphorylated EGFR levels using A431 cells (10% FBS); endogenous in cells; host or cells: A431
Put plainly: Detection of phosphorylated EGFR (pEGFR) in EGF-stimulated A431 cells. The test is classed as cell-based. To be noted: A431 cells (10% FBS), 4 hours incubation, EGF 30 ng/mL 10 minutes, AlphaLISA. The procedure:
Enzyme-linked immunosorbent assays (ELISA) were performed to measure phosphorylated EGFR levels using A431 cells (10% FBS). A431 (1.0*10^4 cells/40 μl/well) cells were seeded in 384 well. Compounds were dissolved in DMSO, serially diluted in DMSO and then were added, mixed, and incubated for 4 hours at 37° C., 5% CO2. Following the 4-hours incubation, cells were stimulated for 10 minutes with EGF (Invitrogen, cat #PHG0311) at a final concentration of 30 ng/mL in the incubator. The media was aspirated and cells were lysed in 10 μL lysis buffer with protease and phosphatase inhibitors (PerkinElmer, cat #ALSU-PEGFR-A50K). The plates were placed on a shaker for 5 minutes and then incubated for 30 min at 4° C. for complete lysis. The lysate was transferred to an Optiplate (Perkin Elmer, cat #6007290).
Acceptor mix (PerkinElmer, cat #ALSU-PEGFR-A50K) was prepared just before use and 5 μL was dispensed to all the wells, followed by a 1.5-2 h incubation at room temperature in dark. The donor mix (PerkinElmer, cat #ALSU-PEGFR-A50K) was prepared under low light conditions prior to use and […] of donor mix was added to all the wells under subdued lighting or green filters. The plates were placed on a shaker for 5 min, sealed, and incubated overnight at room temperature in dark. Plates were read on the Envision (PerkinElmer) using standard AlphaLISA settings.
The percentage of inhibition on EGFR phosphorylation was calculated following equation: % Inhibition=100×(LumHC−LumSample)/(LumHC−LumLC). The low and high controls (LC/HC) are generated from lysate from wells with cells treated with DMSO or […] Staurosporine (BioAustralis, cat #BIA-S1086), […]. IC50 values were calculated by fitting the Curve using XLfit (v5.3.1.3), equation 201: Y=Bottom+(Top−Bottom)/(1+10^((Log IC50−X)*HillSlope)).
(In general: In Alpha technology, singlet oxygen from a donor bead excites a nearby acceptor bead.)

The target of test [3] is Ba/F3 ERBB2 A775_G776insYVMA (Homo sapiens, UniProt P04626, DUP772-775, cells depend on it). Put plainly: Cell viability assay, Ba/F3 ERBB2 A775_G776insYVMA. The test is classed as cell-based, mouse. To be noted: Ba/F3 ERBB2 YVMA cells, cell viability, 72 hours, CellTiter Glo; Table B5; read-out: Ba/F3 ERBB2 YVMA, IC50. The procedure:
Cells were treated with compounds, and cell viability was measured as a metric of kinase inhibition.
The Ba/F3 cell line is IL-3-dependent mouse cell line derived from the C3H mouse strain. Ba/F3 cell lines were engineered to express human ERBB2 or EGFR kinases, rendering the cells IL-3 independent. The lines were generated via retroviral transduction utilizing a Moloney murine leukemia virus (MMLV) promoter, and constructs are stably integrated into the cell genome. The sequences of the ERBB2 and EGFR genes used were NCBI Reference Sequences NM_004448.3 and NM_005228.3, respectively.
Similarly, Ba/F3 cell lines engineered to express EGFR, ERBB2, or ERBB2 mutants were grown, harvested, counted and seeded at 3000 cells per well in 96-well plates. A subset of wells contained media only (low control, “LC”).
Table B1 provides the growth media and number of cells seeded per well for the each cell line.
Plates were placed in a 37° C., 5% CO2 incubator for 72 hours. Plates were then removed from the incubator and equilibrated for 15 minutes at room temperature. 40 μl of CellTiter Glo reagent (Promega) was added to measure the relative level of metabolically active cells by quantifying intracellular ATP concentrations. Plates were incubated for 30 minutes at room temperature, and luminescence was measured. […] Graphical curves were fitted using a nonlinear regression model with a sigmoidal dose response.
(Cellular ATP, detected with luciferase, serves as a proxy for viable cell number.)

Ba/F3 ERBB2 A775_G776insYVMA, sequence (P04626 with tags, fused parts or gaps DUP772-775): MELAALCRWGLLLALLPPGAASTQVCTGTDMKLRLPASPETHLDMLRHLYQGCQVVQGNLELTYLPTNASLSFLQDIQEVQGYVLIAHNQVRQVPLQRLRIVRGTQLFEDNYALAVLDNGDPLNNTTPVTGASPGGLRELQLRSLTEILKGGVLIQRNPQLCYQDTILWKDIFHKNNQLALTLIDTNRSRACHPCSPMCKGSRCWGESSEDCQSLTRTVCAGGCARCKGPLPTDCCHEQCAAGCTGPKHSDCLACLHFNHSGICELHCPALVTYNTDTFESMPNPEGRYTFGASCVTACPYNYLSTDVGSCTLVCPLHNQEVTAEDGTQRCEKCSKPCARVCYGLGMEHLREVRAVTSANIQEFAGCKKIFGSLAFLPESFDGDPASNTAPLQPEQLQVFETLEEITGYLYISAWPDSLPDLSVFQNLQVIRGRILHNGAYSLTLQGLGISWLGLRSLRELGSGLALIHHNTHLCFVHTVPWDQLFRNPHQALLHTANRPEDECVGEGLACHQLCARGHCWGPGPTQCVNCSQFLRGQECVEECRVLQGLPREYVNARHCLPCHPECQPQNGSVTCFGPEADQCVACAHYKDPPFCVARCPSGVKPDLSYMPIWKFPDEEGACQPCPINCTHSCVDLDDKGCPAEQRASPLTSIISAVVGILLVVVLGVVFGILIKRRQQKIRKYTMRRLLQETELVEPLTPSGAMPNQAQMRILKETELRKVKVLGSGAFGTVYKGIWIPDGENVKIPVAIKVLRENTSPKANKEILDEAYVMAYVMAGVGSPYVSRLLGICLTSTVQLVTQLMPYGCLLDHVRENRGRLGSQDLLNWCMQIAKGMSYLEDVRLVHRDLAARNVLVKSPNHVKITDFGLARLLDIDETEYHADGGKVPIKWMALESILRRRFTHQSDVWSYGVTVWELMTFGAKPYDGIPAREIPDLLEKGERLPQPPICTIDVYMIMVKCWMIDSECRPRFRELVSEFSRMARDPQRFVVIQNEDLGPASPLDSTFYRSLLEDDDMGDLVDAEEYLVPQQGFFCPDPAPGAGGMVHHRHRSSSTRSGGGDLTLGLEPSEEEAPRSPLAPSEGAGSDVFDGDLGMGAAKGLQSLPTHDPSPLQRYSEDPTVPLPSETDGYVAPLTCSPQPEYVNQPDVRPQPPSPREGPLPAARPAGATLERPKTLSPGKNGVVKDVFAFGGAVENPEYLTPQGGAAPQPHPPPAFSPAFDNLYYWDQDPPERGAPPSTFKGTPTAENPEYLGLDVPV
T2 sequence (P00533 25-1210): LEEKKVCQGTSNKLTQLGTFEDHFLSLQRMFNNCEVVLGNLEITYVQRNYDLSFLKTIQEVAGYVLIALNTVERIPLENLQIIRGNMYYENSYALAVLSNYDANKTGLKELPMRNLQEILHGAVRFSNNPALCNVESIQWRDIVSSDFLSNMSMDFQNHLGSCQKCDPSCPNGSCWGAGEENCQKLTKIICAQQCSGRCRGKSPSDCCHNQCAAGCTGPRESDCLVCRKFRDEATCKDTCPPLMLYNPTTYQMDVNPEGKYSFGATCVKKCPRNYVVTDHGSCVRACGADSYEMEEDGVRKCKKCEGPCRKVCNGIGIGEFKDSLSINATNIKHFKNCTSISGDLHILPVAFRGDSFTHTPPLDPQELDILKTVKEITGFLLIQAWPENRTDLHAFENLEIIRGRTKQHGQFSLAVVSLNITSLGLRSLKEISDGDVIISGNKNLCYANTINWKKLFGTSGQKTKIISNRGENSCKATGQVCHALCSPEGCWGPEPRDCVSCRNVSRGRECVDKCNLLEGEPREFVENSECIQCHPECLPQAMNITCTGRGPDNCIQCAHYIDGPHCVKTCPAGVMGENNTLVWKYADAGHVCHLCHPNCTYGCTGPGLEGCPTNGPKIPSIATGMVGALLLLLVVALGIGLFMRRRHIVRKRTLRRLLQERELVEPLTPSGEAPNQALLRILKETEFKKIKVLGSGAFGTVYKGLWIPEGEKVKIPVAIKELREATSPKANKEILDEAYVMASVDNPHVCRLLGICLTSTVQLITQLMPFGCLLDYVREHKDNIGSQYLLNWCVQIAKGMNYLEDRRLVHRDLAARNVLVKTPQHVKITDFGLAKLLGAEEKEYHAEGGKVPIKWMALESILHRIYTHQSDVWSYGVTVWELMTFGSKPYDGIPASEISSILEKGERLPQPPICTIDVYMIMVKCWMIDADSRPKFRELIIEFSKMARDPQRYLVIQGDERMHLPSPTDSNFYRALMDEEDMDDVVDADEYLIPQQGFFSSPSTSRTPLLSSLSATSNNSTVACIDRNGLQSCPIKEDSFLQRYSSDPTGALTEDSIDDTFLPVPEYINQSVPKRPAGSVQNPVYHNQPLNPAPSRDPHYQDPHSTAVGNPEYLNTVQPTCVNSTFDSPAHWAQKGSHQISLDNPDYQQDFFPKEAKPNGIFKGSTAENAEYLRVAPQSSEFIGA
T1 sequence (P04626 23-1255): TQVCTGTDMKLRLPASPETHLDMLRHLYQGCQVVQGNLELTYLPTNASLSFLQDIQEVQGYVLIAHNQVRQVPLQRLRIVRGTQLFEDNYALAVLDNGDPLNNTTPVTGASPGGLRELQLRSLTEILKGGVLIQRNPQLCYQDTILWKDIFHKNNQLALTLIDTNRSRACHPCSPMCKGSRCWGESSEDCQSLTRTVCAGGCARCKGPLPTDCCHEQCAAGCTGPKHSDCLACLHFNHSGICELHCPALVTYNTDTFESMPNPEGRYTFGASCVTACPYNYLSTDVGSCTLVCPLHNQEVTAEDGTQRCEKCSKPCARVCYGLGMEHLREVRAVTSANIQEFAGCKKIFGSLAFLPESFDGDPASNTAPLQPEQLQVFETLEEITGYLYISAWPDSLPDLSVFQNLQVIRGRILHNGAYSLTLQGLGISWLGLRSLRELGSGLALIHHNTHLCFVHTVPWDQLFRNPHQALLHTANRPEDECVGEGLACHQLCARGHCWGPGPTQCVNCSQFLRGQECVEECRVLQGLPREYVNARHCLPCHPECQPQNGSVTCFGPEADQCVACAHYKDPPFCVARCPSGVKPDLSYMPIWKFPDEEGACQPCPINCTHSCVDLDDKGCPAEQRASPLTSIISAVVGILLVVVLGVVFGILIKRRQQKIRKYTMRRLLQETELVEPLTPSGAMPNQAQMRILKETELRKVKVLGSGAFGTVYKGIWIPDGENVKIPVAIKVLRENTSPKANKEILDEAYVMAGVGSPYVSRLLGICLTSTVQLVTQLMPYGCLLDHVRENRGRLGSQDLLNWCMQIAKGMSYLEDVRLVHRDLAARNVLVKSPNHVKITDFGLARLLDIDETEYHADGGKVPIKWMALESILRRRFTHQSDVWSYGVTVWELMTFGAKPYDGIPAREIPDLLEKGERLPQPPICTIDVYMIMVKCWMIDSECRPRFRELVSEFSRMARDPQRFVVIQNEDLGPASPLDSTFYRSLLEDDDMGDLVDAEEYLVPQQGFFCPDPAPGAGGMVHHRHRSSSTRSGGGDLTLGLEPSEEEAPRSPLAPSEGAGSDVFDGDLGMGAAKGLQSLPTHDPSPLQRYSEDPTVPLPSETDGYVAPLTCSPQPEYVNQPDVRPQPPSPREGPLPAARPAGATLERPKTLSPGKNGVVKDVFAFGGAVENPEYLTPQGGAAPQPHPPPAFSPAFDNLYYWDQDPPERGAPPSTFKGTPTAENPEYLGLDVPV

For `Cc1cc(Nc2ncnc3ccc(N4CCC(=CCN(C)C)C4=O)cc23)ccc1Oc1ccn2ncnc2c1` (single isomer, unassigned) [Compound 17, (Z)-3-[2-(dimethylamino)ethylidene]-1-[4-[(3-methyl-4-[[1,2,4]triazolo[1,5-a]pyridin-7-yloxy]phenyl)amino]quinazolin-6-yl]pyrrolidin-2-one], the IC50 in test [1] was 19.7 nM; in test [2], over 10000 nM.

For `CC1CN(c2cc3c(Nc4ccc(Oc5ccc6c(c5)nnn6C)cc4)ncnc3cn2)C(=O)/C1=C/CN(C)C` (single isomer, unassigned) [Compound 136], the GI50 in test [3] is 18 nM. Further, the IC50 was 72.6 nM in test [1] and 1670 nM in test [2].

On to `CC1CN(c2cc3c(Nc4ccc(Oc5ccc6c(c5)nnn6C)cc4)ncnc3cn2)C(=O)/C1=C/CN(C)C` (single isomer, unassigned) [Compound 137], for which the GI50 in test [3] stood at 473 nM. Also, the IC50 in test [1] was 4110 nM; in test [2], over 10000 nM.

Regarding `C=C1C(=O)N(c2ccc3ncnc(Nc4ccc(Oc5ccn6ncnc6c5)c(C)c4)c3c2)C2CC12` (single isomer, unassigned) [Example S21, Enantiomer # 1, 2-{4-[(3-methyl-4-{[1,2,4]triazolo[1,5-a]pyridin-7-yloxy}phenyl)amino]quinazolin-6-yl}-4-methylidene-2-azabicyclo[3.1.0]hexan-3-one], the values for the IC50 in test [1] and in test [2] were 20.8 nM and 538 nM, respectively.

`C=C1C(=O)N(c2ccc3ncnc(Nc4ccc(Oc5ccn6ncnc6c5)c(C)c4)c3c2)C2CC12` (single isomer, unassigned) [Example S21, Enantiomer # 2, 2-{4-[(3-methyl-4-{[1,2,4]triazolo[1,5-a]pyridin-7-yloxy}phenyl)amino]quinazolin-6-yl}-4-methylidene-2-azabicyclo[3.1.0]hexan-3-one]: the IC50 was determined as 22.3 nM in test [1] and 1980 nM in test [2].

With `C=C1C(=O)N(c2ccc3ncnc(Nc4ccc(Oc5ccc6c(c5)ncn6C)c(C)c4)c3c2)C2CC12` (single isomer, unassigned) [Example S33, Enantiomer # 1, 2-[4-({3-methyl-4-[(1-methyl-1,3-benzodiazol-5-yl)oxy]phenyl}amino)quinazolin-6-yl]-4-methylidene-2-azabicyclo[3.1.0]hexan-3-one], the GI50 in test [3] worked out at 7.57 nM. For the same compound, the IC50 turned out to be 23.2 nM in test [1] and 1090 nM in test [2].

For `C=C1C(=O)N(c2ccc3ncnc(Nc4ccc(Oc5ccc6c(c5)ncn6C)c(C)c4)c3c2)C2CC12` (single isomer, unassigned) [Example S33, Enantiomer # 2, 2-[4-({3-methyl-4-[(1-methyl-1,3-benzodiazol-5-yl)oxy]phenyl}amino)quinazolin-6-yl]-4-methylidene-2-azabicyclo[3.1.0]hexan-3-one], the GI50 in test [3] was 7.6 nM. The concentration for half-maximal inhibition (IC50) worked out at 24.9 nM in test [1] and 520 nM in test [2].

Regarding `C=C1C(=O)N(c2ccc3ncnc(Nc4ccc(Cc5ccn6ncnc6c5)c(C)c4)c3c2)C2CC12` (single isomer, unassigned) [Example S79, Enantiomer #1, 2-(4-((4-([1,2,4]triazolo[1,5-a]pyridin-7-ylmethyl)-3-methylphenyl)amino)quinazolin-6-yl)-4-methylene-2-azabicyclo[3.1.0]hexan-3-one], the GI50 in test [3] is 32.1 nM. In addition, the IC50 in test [1] worked out at 36.6 nM; in test [2], 6100 nM.

`C=C1C(=O)N(c2ccc3ncnc(Nc4ccc(Cc5ccn6ncnc6c5)c(C)c4)c3c2)C2CC12` (single isomer, unassigned) [Example S79, Enantiomer #2, 2-(4-((4-([1,2,4]triazolo[1,5-a]pyridin-7-ylmethyl)-3-methylphenyl)amino)quinazolin-6-yl)-4-methylene-2-azabicyclo[3.1.0]hexan-3-one]: the GI50 in test [3] is 13.7 nM. Besides, the figures for the IC50 in test [1] and in test [2] were 15.3 nM and 798 nM, respectively.

As for `Cc1cc(Nc2ncnc3cnc(N4CC(C)/C(=C\CN(C)C)C4=O)cc23)ccc1Oc1ccc2c(c1)nnn2C` (single isomer, unassigned) [Example S86, Enantiomer #1, (3E)-3-[2-(dimethylamino)ethylidene]-4-methyl-1-[4-({3-methyl-4-[(1-methyl-1,2,3-benzotriazol-5-yl)oxy]phenyl}amino)pyrido[3,4-d]pyrimidin-6-yl]pyrrolidin-2-one], the GI50 in test [3] worked out at 2.59 nM. The IC50 amounted to 11.5 nM in test [1] and 574 nM in test [2].

For `C=C1CCN(c2ccc3ncnc(Nc4ccc(Sc5ccn6ncnc6c5)c(C)c4)c3c2)C1=O` [Compound 13, 1-[4-[(3-methyl-4-[[1,2,4]triazolo[1,5-a]pyridin-7-ylsulfanyl]phenyl)amino]quinazolin-6-yl]-3-methylidenepyrrolidin-2-one], the IC50 amounted to 12.5 nM in test [1] and 571 nM in test [2].

As to `C=C1C(=O)N(c2ccc3ncnc(Nc4ccc(Oc5ccn6ncnc6c5)c(C)c4)c3c2)C[C@@H]1C` [Compound 19, (R)-1-(4-((4-([1,2,4]triazolo[1,5-a]pyridin-7-yloxy)-3-methylphenyl)amino)quinazolin-6-yl)-4-methyl-3-methylenepyrrolidin-2-one], the IC50 in test [1] amounted to 25.2 nM; in test [2] it was 5630 nM.

In the case of `C=C1C(=O)N(c2ccc3ncnc(Nc4ccc(Oc5ccn6ncnc6c5)c(C)c4)c3c2)C[C@H]1C` [Compound 20, (S)-1-(4-(4-([1,2,4]triazolo[1,5-a]pyridin-7-yloxy)-3-methylphenylamino)quinazolin-6-yl)-4-methyl-3-methylenepyrrolidin-2-one], the IC50 in test [1] worked out at 12 nM; in test [2] it was 586 nM.

As for `C=C1CCN(c2ccc3ncnc(Nc4ccc(Oc5ccn6ncnc6c5)c(C)c4)c3n2)C1=O` [Compound 23, 1-{4-[(3-methyl-4-{[1,2,4]triazolo[1,5-a]pyridin-7-yloxy}phenyl)amino]pyrido[3,2-d]pyrimidin-6-yl}-3-methylidenepyrrolidin-2-one], the half-inhibitory concentration (IC50) stood at 23.2 nM in test [1] and 6150 nM in test [2].

Usually IC50 stands for the concentration needed to halve the response being measured. Read a low IC50 as greater potency in that assay.
